Source: US9839642B2, “Beta-tetrazolyl-propionic acids as metallo-beta-lactamase inhibitors” (priority 2014, dated 2017)
Read-outs that look alike come from different tables or passages of the source.

Assays:
[1] = system: Klebsiella pneumoniae expressing VIM-1 (IHMA599644); assay: Antibiotic potentiation activity: synergistic concentration (MITC95) with imipenem, growth by OD600; type: cell-based
Procedure, shortened: (§1)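 MITC95 = lowest inhibitor concentration giving 95% growth inhibition, read by absorbance after 22–24 h at 35° C. Compound range 200 μM to 0.195 μM, imipenem fixed at 1 or 4 μg/ml, bacteria in 1.1×CAMHB from saline suspension diluted 1:100.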

[2] = system: Escherichia coli expressing NDM-1 (CLB30016); assay: as above; type: cell-based
Procedure, shortened: as §1

[3] = system: Serratia marcescens expressing IMP-1 (CL5741); assay: as above; type: cell-based
Procedure, shortened: as §1

[4] = molecular target: NDM-1 (Klebsiella pneumoniae, UniProt C7C422); assay: Enzyme activity: determination of IC50, fluorescence assay with CCF2-FA substrate; type: biochemical; conditions: CCF2-FA 1.25 μM, 2 hours at 25° C.
Procedure, shortened: (§2)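 In pH 7 phosphate buffer (100 mM) with 10 μM ZnSO4 and 0.005% Tween-20, CCF2-FA substrate (1.25 μM final) was hydrolysed for 2 h at 25 °C by NDM-1, IMP-1 or VIM-1 at 1, 2 or 30 pM in the presence of inhibitor at 20–0.00063 μM. Emission 460 nm/excitation 405 nm; 4-parameter curve fit gave IC50.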

[5] = molecular target: IMP-1 (Serratia marcescens, UniProt P52699); assay: as above; type: biochemical; conditions: CCF2-FA 1.25 μM, 2 hours at 25° C., read-out: IMP1 IC50
Procedure, shortened: as §2

[6] = molecular target: VIM-1 (Pseudomonas aeruginosa, UniProt A0A0F7KYQ8); assay: as above; type: biochemical; conditions: CCF2-FA 1.25 μM, 2 hours at 25° C., read-out: VIM1 IC50
Procedure, shortened: as §2

[7] = 95% inhibition of bacterial growth, strain IHMA599644
[8] = 95% inhibition of bacterial growth, strain CLB30016
[9] = 95% inhibition of bacterial growth, strain CL5741
[10] = enzyme 1 pM, read-out: NDM1 IC50
[11] = K. pneumoniae IHMA599644 (VIM-1), 95% inhibition of growth
[12] = E. coli CLB30016 (NDM-1), 95% inhibition of growth
[13] = S. marcescens CL5741 (IMP-1), 95% inhibition of growth
[14] = NDM-1 enzyme 1 pM, read-out: NDM1 IC50

Sequence of NDM-1 (C7C422 29-270, looked up, species assumed): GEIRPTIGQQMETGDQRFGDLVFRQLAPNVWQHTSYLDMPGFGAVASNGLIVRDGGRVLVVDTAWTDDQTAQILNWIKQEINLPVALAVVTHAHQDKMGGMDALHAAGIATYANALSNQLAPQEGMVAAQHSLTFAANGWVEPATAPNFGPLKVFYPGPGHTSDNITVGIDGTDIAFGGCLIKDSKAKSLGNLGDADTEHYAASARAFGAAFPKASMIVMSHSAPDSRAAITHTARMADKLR
Sequence of IMP-1 (P52699 19-246, looked up, species assumed): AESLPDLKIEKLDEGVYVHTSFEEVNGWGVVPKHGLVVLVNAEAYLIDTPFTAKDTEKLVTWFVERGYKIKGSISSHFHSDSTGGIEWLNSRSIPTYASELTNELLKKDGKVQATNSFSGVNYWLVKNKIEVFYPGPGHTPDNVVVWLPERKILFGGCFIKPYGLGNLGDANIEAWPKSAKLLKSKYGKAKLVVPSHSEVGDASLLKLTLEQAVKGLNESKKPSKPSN

Row | Structure (SMILES) | VIM1 KP599644 MITC95 [1, 7] [µM] | NDM1 EC30016 MITC95 [2, 8] [µM] | IMP1 SM5741 MITC95 [3, 9] [µM] | IC50 ([4]; NDM1 IC50, enzyme 1 pM) [nM] | IC50 ([5]; enzyme 2 pM) [nM] | IC50 ([6]; enzyme 30 pM) [nM] | IC50 [4, 10] [nM] | VIM1 KP599644 MITC95 [1, 11] [µM] | NDM1 EC30016 MITC95 [2, 12] [µM] | IMP1 SM5741 MITC95 [3, 13] [µM] | IC50 [4, 14] [nM] | IC50 ([5]; IMP-1 enzyme 2 pM) [nM] | IC50 ([6]; VIM-1 enzyme 30 pM) [nM]
1 | CC(C)C[C@H](C(=O)O)[C@H](Cc1ccc(C2=CCNCC2)cn1)c1nn[nH]n1 [Example 170, (2S)-4-methyl-2-[(1S)-2-(1′,2′,3′,6′-tetrahydro-3,4′-bipyridin-6-yl)-1-(2H-tetrazol-5-yl)ethyl]pentanoic acid] | 12.5 | 1.6 | 50 | 250 | 3600 | 22 |  |  |  |  |  |  | 
2 | CCC[C@H](C(=O)O)[C@H](Cc1ccncc1)c1nnn[nH]1 [Example 88, (2S)-2-[(1S)-2-pyridin-4-yl-1-(1H-tetrazol-5-yl)ethyl]pentanoic acid] | 6.2 | 0.78 | 37.5 |  | 2000 | 5.6 | 180 |  |  |  |  |  | 
3 | CCC[C@H](C(=O)O)[C@H](Cc1ccc(C2CCNCC2)nc1)c1nnn[nH]1 [Example 408, (S)-2-((S)-2-(6-(piperidin-4-yl)pyridin-3-yl)-1-(1H-tetrazol-5-yl)ethyl)pentanoic acid] |  |  |  |  |  |  |  | 25 | 7.813 | 75 | 250 | 3450 | 6.5
4 | CCC[C@H](C(=O)O)[C@H](Cc1ccc2ccc(N)nc2c1)c1nnn[nH]1 [Example 147, (S)-2-((S)-2-(2-aminoquinolin-7-yl)-1-(1H-tetrazol-5-yl)ethyl)pentanoic acid] | 6.2 | 3.1 | 100 |  | 4500 | 0.85 | 110 |  |  |  |  |  | 
5 | CCC[C@H](C(=O)O)[C@H](Cc1ccc(NCCO)cn1)c1nnn[nH]1 [Example 136, (S)-2-((S)-2-(5-((2-hydroxyethyl)amino)pyridin-2-yl)-1-(1H-tetrazol-5-yl)ethyl)pentanoic acid] | 18.8 | 1.2 | 100 |  | 6800 | 150 | 340 |  |  |  |  |  | 
6 | CCC[C@H](C(=O)O)[C@H](Cc1ccc(C2CCN(C(=N)N)CC2)cc1)c1nnn[nH]1 [Example 296, (S)-2-((S)-2-(4-(1-carbamimidoylpiperidin-4-yl)phenyl)-1-(1H-tetrazol-5-yl)ethyl)pentanoic acid] |  |  |  |  |  |  |  | 12.5 | 4.7 | 6.2 | 32 | 180 | 21
7 | CC(C)C[C@H](C(=O)O)[C@H](Cc1ccc(OCCN)nc1)c1nnn[nH]1 [Example 135, (S)-2-((S)-2-(6-(2-aminoethoxy)pyridin-3-yl)-1-(1H-tetrazol-5-yl)ethyl)-4-methylpentanoic acid] | 25 | 6.2 | 25 |  | 1600 | 6.1 | 490 |  |  |  |  |  | 
8 | CC(C)C[C@H](C(=O)O)[C@H](Cc1ccc(Oc2ccc(CN)cc2)nc1)c1nn[nH]n1 [Example 390, (2S)-2-[(1S)-2-{6-[4-(aminomethyl)phenoxy]pyridin-3-yl}-1-(2H-tetrazol-5-yl)ethyl]-4-methylpentanoic acid] |  |  |  |  |  |  |  | 25 | 1.6 | 12.5 | 35 | 240 | 5.3
9 | CC(C)[C@H](C(=O)O)[C@H](CC1CCNCC1)c1nnn[nH]1 [Example 89, (2S,3S)-2-isopropyl-4-(piperidin-4-yl)-3-(1H-tetrazol-5-yl)butanoic acid] | 37.5 | 18.8 | >200 |  | > 20000 | 2100 | 18000 |  |  |  |  |  | 
10 | CCC[C@H](C(=O)O)[C@H](Cc1cccc(N2CCC[C@@H](N)C2)c1)c1nn[nH]n1 [Example 370, (2S)-2-[(1S)-2-{3-[(3R)-3-aminopiperidin-1-yl]phenyl}-1-(2H-tetrazol-5-yl)ethyl]pentanoic acid] |  |  |  |  |  |  |  | 41 | 44 | 175 | 870 | 9000 | 6.3
11 | O=C(O)[C@@H](C1CCOC1)[C@H](Cc1ccc(C2=CCNC2)cc1)c1nnn[nH]1 (stereo partly drawn) [Example 67, (2R,3S)-4-(4-(2,5-dihydro-1H-pyrrol-3-yl)phenyl)-2-(tetrahydrofuran-3-yl)-3-(1H-tetrazol-5-yl)butanoic acid] | 25 | 12.5 | 50 |  | 12000 | 25 | 890 |  |  |  |  |  | 
12 | CCC[C@H](C(=O)O)[C@H](Cc1ccc(-c2cnc(N)nc2)nc1)c1nnn[nH]1 [Example 161, (2S)-2-[(1S)-2-[6-(2-aminopyrimidin-5-yl)pyridin-3-yl]-1-(1H-tetrazol-5-yl)ethyl]pentanoic acid] | 50 | 18.8 | 18.8 |  | 1100 | 3.3 | 30 |  |  |  |  |  | 
13 | CCC[C@H](C(=O)O)[C@H](Cc1cccc(F)c1)c1nnn[nH]1 [Example 260, (2S)-2-[(1S)-2-(3-fluorophenyl)-1-(1H-tetrazol-5-yl)ethyl]pentanoic acid] |  |  |  |  |  |  |  | 18.8 | 6.2 | 12.5 | 75 | 870 | 3.7
14 | CC(C)C[C@H](C(=O)O)[C@H](Cc1ccc(Oc2cccc3c2CCCN3)nc1)c1nn[nH]n1 [Example 389, (2S)-4-methyl-2-[(1S)-2-[6-(1,2,3,4-tetrahydroquinolin-5-yloxy)pyridin-3-yl]-1-(2H-tetrazol-5-yl)ethyl]pentanoic acid] |  |  |  |  |  |  |  | 100 | 25 | 6.2 | 16 | 58 | 4.4
15 | CC(C)C[C@H](C(=O)O)[C@H](Cc1ccc(N2CCNCC2)c(F)c1)c1nn[nH]n1 [Example 146, (S)-2-((S)-2-(3-fluoro-4-(piperazin-1-yl)phenyl)-1-(2H-tetrazol-5-yl)ethyl)-4-methylpentanoic acid] | 15.6 | 6.2 | 5.5 |  | 100 | 1.6 | 36 |  |  |  |  |  | 
16 | Cc1cc(C[C@H](c2nnn[nH]2)[C@@H](C(=O)O)C(C)C)ccc1C1CCNC1 (stereo partly drawn) [Example 110, (2S,3S)-2-isopropyl-4-(3-methyl-4-(pyrrolidin-3-yl)phenyl)-3-(1H-tetrazol-5-yl)butanoic acid] | 6.2 | 4.7 | 18.8 |  | 1400 | 4.4 | 24 |  |  |  |  |  | 
17 | CCC[C@H](C(=O)O)[C@H](CCc1ccccc1)c1nnn[nH]1 [Example 266, (2S,3S)-5-phenyl-2-propyl-3-(1H-tetrazol-5-yl)pentanoic acid] |  |  |  |  |  |  |  | 25 | 12.5 | 38 | 190 | 1000 | 20
